Results on 1 molecule are retold here after US11866695B2, “Methods and systems and related compositions for mixtures separation with a solid matrix” (CALIFORNIA INSTITUTE OF TECHNOLOGY, priority 2019, dated 2024).

What all share (type): biochemical
In experiment [1] the test system is λ phage DNA. The experiment can be described thus: Zymo Quick-DNA/RNA MagBead extraction with air dry replaced by TPW, qPCR. The conditions noted are these: 10× dilution of eluent into qPCR. Here is the method:
(§1) qPCR reactions contained 1× Bio-Rad SsoFast Supermix (1725201, Bio-Rad), PCR primers (IDT) at […] each, and were supplemented with nuclease-free water up to 10 μL. Each 96-well plate (thin-wall clear well, HSP9641, Bio-Rad) was sealed (Microseal B, MSB1001, Bio-Rad) and briefly spun in a Mini Plate Spinner Centrifuge (14-100-141, Fisher Scientific). Heating and real-time imaging were performed on the Bio-Rad CFX-96 Touch Real-Time PCR Detection System by heating to 95° C. for 5 min, cycling 40 times between 95° C. for 15 s, 60° C. for 15 s, and 72° C. for 20 s, and taking a melt-curve analysis. For the E. coli DNA dilution experiment, qPCR was run for 60 cycles. Fluorescence readings were taken at the end of each extension step. Quantification cycle (Cq) was determined when the software's automated baseline corrected fluorescence reached 200 RFU.
The Zymo Quick-DNA/RNA Viral MagBead (R2140) was tested. For the Zymo MagBead kit, 200 μL sample was mixed with 200 μL Zymo 2×DNA/RNA Shield, 4 μL Proteinase K, and 800 μL Zymo Viral DNA/RNA Buffer. 1204 μL was added to each tube, mixed with 20 μL MagBinding Beads, and placed on an UltraRocker Rocking Platform (1660709EDU, Bio-Rad, Hercules, Calif., USA) for 10 min at max speed. Tubes were transferred to a DynaMag-2 magnetic rack (12321D, Thermo Fisher Scientific) and manufacturer instructions was followed for the remainder of the protocol. […]
Background: Quantitative PCR measures a nucleic acid by following its amplification.

For experiment [2], the system named is λ phage DNA. The experiment can be described thus: Zymo Quick-Viral DNA/RNA kit extraction with additional TPW, qPCR with 2.2× diluted eluent. How it is done: as §1
Three different silica-column kits were tested, including: Zymo ZR Viral DNA/RNA Kit (outdated protocol, D7021), Zymo Quick-DNA/RNA Kit (updated protocol, D7021), and the QIAquick PCR Purification Kit (28104, Qiagen). For all silica-column kits, fresh collection tubes were used after each spin and centrifugation speeds were set to 16,000×g. Centrifugation was performed on either an Eppendorf 5415D centrifuge (Eppendorf, Hauppauge, N.Y., USA) or a Thermo Fisher Scientific AccuSpin Micro 17R centrifuge (13-100-676). It was noted that the QIAquick protocol calls for 17,900×g, but instead was run at 16,000×g which was the max speed for the Eppendorf 5415D. For both Zymo kits, 750 μL lysed sample was prepared by mixing 125 μL sample with 125 μL Zymo 2×DNA/RNA Shield and 500 μL Viral DNA/RNA Buffer. For the Zymo ZR Viral DNA/RNA kit, 750 μL lysed sample was centrifuge for 1 min, 500 μL Zymo Viral Wash Buffer was centrifuged for 2 min, and 50 μL nuclease-free water was centrifuged for 30 s into a clean 1.5 mL tube. Optionally, either a dry spin or 300 μL TPW was centrifuged for 2 min in between the Viral Wash Buffer and elution steps. […] For the QIAquick PCR Purification Kit, 125 μL sample was mixed with 625 μL Buffer PB without indicator. 750 μL lysed sample was centrifuged for 30 s, followed by 750 μL Buffer PE for 30 s, a dry spin for 1 min, and 50 μL nuclease-free water for 1 min. Optionally, the dry spin was skipped or the dry spin was replaced with a 300 μL TPW and centrifuged for 1 min.
Of our TPW candidates, 1-undecanol was selected for further evaluation because (i) it was non-inhibitory for qPCR and LAMP reactions and (ii) as an alcohol, 1-undecanol may function similarly to ethanol- or isopropanol-based washes. In these experiments (testing criteria 1b and 2), a commercially purified λ phage DNA sample was first diluted to 2.5×10^6 copies and ran an NA extraction using the Zymo Quick-DNA/RNA Viral Kit. The experimental procedure either followed the manufacturer protocol or added an additional 300 μL 1-undecanol wash in between the Viral Wash Buffer and elution step. Using the manufacturer's protocol, the resulting eluent is approximately 49 μL, but with the added TPW the resulting eluent is approximately 48 μL aqueous phase and ˜1-2 μL 1-undecanol phase. To emphasize any potential inhibitory effects, a low dilution of eluent was used. For qPCR, a 2.2×dilution was achieved by adding 4.5 μL of eluent, 0.5 μL primers, and 5 μL qPCR reaction mix. For LAMP, a 2×dilution was achieved by adding 5 μL eluent, 0.5 μL primers, and 4.5 μL reaction mix. […] The ˜1-2 μL TPW separates from the aqueous phase and adheres to the walls of the tube, making it is easy to use a pipette to capture just the eluent.

Experiment [3] deals with LAMP spiked with 5×104 copies λ phage DNA. The experiment can be described thus: TPW screen with LAMP (1 μL wash candidate added to 10 μL reaction). The conditions noted are these: 1 μL candidate in 11 μL total. How it is done:
LAMP primers (Integrated DNA Technologies (IDT), Coralville, Iowa, USA) were designed, ordered, and added at NEB's recommended concentrations of […] FIP/BIP, 0.2μM F3/B3, and […] LoopF/B.
Each 96-well plate was sealed and briefly spun. […] Time-to-positive (TTP) was determined when the software's automated baseline corrected fluorescence reached 1000 RFU.
Criterion 1a was investigated directly by performing qPCR and LAMP reactions. Reactions were spiked with λ phage DNA, diluted up to 10 μL, and an additional 1 μL of different wash buffer candidates was added to a total of 11 μL. […] As an experimental control, a “No Additive” condition was tested, which was a 10 μL reaction with optimized reaction conditions and no inhibitors. To control for the effects of a 1 μL dilution on the reaction, a “Water” condition which was an 11 μL reaction with no inhibitors was also tested.

As to `CCCCCCCCCCCO` [1-undecanol], in the experiment on λ phage DNA [1], the “cycle delay vs manufacturer protocol” value stood at 1.1 cycle. The molecule also displayed a Cq with λ phage DNA [2] (2.2× eluent dilution, 3 columns, 9 samples) of 18.46±0.22 cycles. Besides, the qPCR reactions amplified result in the experiment with λ phage DNA [2] (2.2× eluent dilution, amplified/total) is recorded as “all reactions amplified”. In the experiment on λ phage DNA [2] (27 reactions (9 columns)), the “average Cq” value is listed as 19.7±2.5 cycles, the “wells with Cq between 18-22 cycles” value is on record as 25/27 and the “wells with a delayed Cq” value is on record as 2/27. Besides, in experiment [3] (N.D. = not detected within 40 min), the “Avg TTP” value is recorded as 6.70 min. In addition, the ΔTTP in experiment [3] (minus the No additive control) stood at 0.16 min.
